For data set [1] the following is noted: cited from earlier work.
Data set [2] is described as follows: Aqueous solubility. The data set is classed as physicochemical.

SMILES strings stand for the structures. Values after ≈ are worked out from the molar mass of the structure shown. Structures can show the parent of a compound that is named as a salt.

By melting point is commonly meant the temperature, or range, at which the solid turns liquid. For the compound `CO[C@H]1C[C@@H]2CC[C@@H](C)[C@@](O)(O2)C(=O)C(=O)N2CCCC[C@H]2C(=O)O[C@H]([C@H](C)C[C@@H]2CC[C@@H](OC(=O)C[n+]3cccc(O)c3)[C@H](OC)C2)CC(=O)[C@H](C)/C=C(\C)[C@@H](O)[C@@H](OC)C(=O)[C@H](C)C[C@H](C)/C=C/C=C/C=C/1C` (as salt: ammonium) [Compound 5, Rapa-42-ester of 2-(3-hydroxypyridinium-1-yl)acetic Acid], the melting point fell in the range of 146 to 148 °C.
`CO[C@H]1C[C@@H]2CC[C@@H](C)[C@@](O)(O2)C(=O)C(=O)N2CCCC[C@H]2C(=O)O[C@H]([C@H](C)C[C@@H]2CC[C@@H](OC(=O)C[n+]3ccc(C)cc3)[C@H](OC)C2)CC(=O)[C@H](C)/C=C(\C)[C@@H](O)[C@@H](OC)C(=O)[C@H](C)C[C@H](C)/C=C/C=C/C=C/1C` (as salt: ammonium) [Compound 6, Rapa-42-ester of 2-(4-methylpyridinium-1-yl)acetic Acid] returned a melting point of 157 to 160 °C.
Still for that read-out and setting: as for `CO[C@H]1C[C@@H]2CC[C@@H](C)[C@@](O)(O2)C(=O)C(=O)N2CCCC[C@H]2C(=O)O[C@H]([C@H](C)C[C@@H]2CC[C@@H](O)[C@H](OC)C2)CC(=O)[C@H](C)/C=C(\C)[C@@H](OC(=O)C[n+]2cscc2C)[C@@H](OC)C(=O)[C@H](C)C[C@H](C)/C=C/C=C/C=C/1C` (as salt: ammonium) [Compound 8, Rapa-31-ester of 2-(4-methylthiazolium-3-yl)acetic Acid], the figure is 130 to 132 °C; as for `CO[C@H]1C[C@@H]2CC[C@@H](C)[C@@](O)(O2)C(=O)C(=O)N2CCCC[C@H]2C(=O)O[C@H]([C@H](C)C[C@@H]2CC[C@@H](O)[C@H](OC)C2)CC(=O)[C@H](C)/C=C(\C)[C@@H](OC(=O)C[n+]2cccc(C)c2)[C@@H](OC)C(=O)[C@H](C)C[C@H](C)/C=C/C=C/C=C/1C` (as salt: ammonium) [Compound 9, Rapa-31-ester of 2-(3-methylpyridinium-1-yl)acetic Acid], 138 to 140 °C.
On the same count and under the same terms, the figure for `CO[C@H]1C[C@@H]2CC[C@@H](C)[C@@](O)(O2)C(=O)C(=O)N2CCCC[C@H]2C(=O)O[C@H]([C@H](C)C[C@@H]2CC[C@@H](O)[C@H](OC)C2)CC(=O)[C@H](C)/C=C(\C)[C@@H](OC(=O)C[n+]2ccccc2)[C@@H](OC)C(=O)[C@H](C)C[C@H](C)/C=C/C=C/C=C/1C` (as salt: ammonium) [Compound 10, Rapa-31-ester of 2-(pyridinium-1-yl)acetic Acid] is 140 to 142 °C.
Still for that read-out and setting: the figure for `CO[C@H]1C[C@@H]2CC[C@@H](C)[C@@](O)(O2)C(=O)C(=O)N2CCCC[C@H]2C(=O)O[C@H]([C@H](C)C[C@@H]2CC[C@@H](O)[C@H](OC)C2)CC(=O)[C@H](C)/C=C(\C)[C@@H](OC(=O)C[n+]2ccc(C)cc2)[C@@H](OC)C(=O)[C@H](C)C[C@H](C)/C=C/C=C/C=C/1C` (as salt: ammonium) [Compound 11, Rapa-31-ester of 2-(4-methylpyridinium-1-yl)acetic Acid] is 145 to 148 °C.
For orientation: solubility means the dissolved amount per volume that the medium holds. A low value points to little dissolved substance. For the compound `CO[C@H]1C[C@@H]2CC[C@@H](C)[C@@](O)(O2)C(=O)C(=O)N2CCCC[C@H]2C(=O)O[C@H]([C@H](C)C[C@@H]2CC[C@@H](O)[C@H](OC)C2)CC(=O)[C@H](C)/C=C(\C)[C@@H](O)[C@@H](OC)C(=O)[C@H](C)C[C@H](C)/C=C/C=C/C=C/1C` [Rapa, Rapamycin, reference compound], the oral bioavailability in data set [1] is 10%. Also, the “Times Increased of Aqueous Solubility (Comp. vs. Rapa)” value in data set [2] (ratio of compound solubility to Rapa solubility) stood at 1. Besides, the solubility in data set [2] (water) was determined as 2.6 µg/mL (≈ 2.84 µM).

(Values after article PMC6271078 (Molecules, 2014).)
